According to US20260248787A9, “MEDICAMENT FOR TREATING CANCER COMPRISING OPTICALLY ACTIVE AZABICYCLO RING DERIVATIVE” (Sumitomo Pharma Co., Ltd., priority 2023, published 2026):
Marks after values point to notes of the source that are not given here.

Assay: Phase 1/2 first-in-human clinical study, safety evaluation (DLT, TEAE, SAE)

## C=C1C[C@@H]2CC[C@H]1[C@@H](C(=O)N1CCC3(CC1)CN(c1ncncc1Oc1ccc(F)cc1C(=O)N(C(C)C)C(C)C)C3)N2 [the present compound, 5-fluoro-2-[(4-{7-[(1S,3S,4R)-5-methylidene-2-azabicyclo[2.2.2]octane-3-carbonyl]-2,7-diazaspiro[3.5]nonan-2-yl}pyrimidin-5-yl)oxy]-N,N-di(propan-2-yl)benzamide]
40 mg BID Arm B (N=4; one patient not DLT evaluable)
  Patients with any DLTs: 0* n (%) and (0.0) n (%)
24 patients enrolled
  cases of differentiation syndrome in patients with MLLr or NPM1m: no cases
  grade of the majority of TEAEs related to the present compound: Grade 1 or 2
  patients who experienced at least one TEAE: 24 patients
  related TEAE leading to dose withdrawn or dose reduction: No related TEAE leading to dose withdrawn or dose reduction
24 patients enrolled (40-120 mg BID Arm A, 40-60 mg BID Arm B)
  patients who developed DLT: none
24 patients, Arm A + Arm B
  patients with fatal SAEs, total (all unrelated): 8 patients
  patients with serious adverse events (SAEs), total: 15 patients
40 to 300 mg BID (Examples 1 and 5)
  safety in humans: confirmed to be safe
43 patients, 40-200 mg BID
  Treatment-related QT interval prolongation events: not reported
  cases of differentiation syndrome in patients with MLLr or NPM1m: no cases
  drug-related AE resulting in permanent treatment discontinuation: No drug-related AE
  grade of the majority of TEAEs: Grade 1 or Grade 2
  treatment-related deaths: no treatment-related deaths
43 patients, any dose level of 40-200 mg
  DLTs: No DLTs
43 patients, patient with TP-53 mutation
  cases of suspected differentiation syndrome related to the present compound: One
57 patients, 40-300 mg
  Differentiation syndrome (DS): 3 patients
  drug-related AE resulting in permanent treatment discontinuation: No drug-related AE
  treatment-related deaths: no treatment-related deaths
57 patients, any dose level of 40-300 mg
  DLTs: no DLTs
Arm A N=14, Any Grade
  Patients with Any TEAE: 14 (100.0) n (%)
  TEAE: Alanine aminotransferase increased: 1 (7.1) n (%)
  TEAE: Anaemia: 5 (35.7) n (%)
  TEAE: Aspartate aminotransferase increased: 2 (14.3) n (%)
  TEAE: Blood and lymphatic system disorders: 10 (71.4) n (%)
  TEAE: Constipation: 3 (21.4) n (%)
  TEAE: Decreased appetite: 3 (21.4) n (%)
  TEAE: Disease progression: 1 (7.1) n (%)
  TEAE: Dyspnoea: 3 (21.4) n (%)
  TEAE: Epistaxis: 1 (7.1) n (%)
  TEAE: Fatigue: 3 (21.4) n (%)
  TEAE: Gastrointestinal disorders: 9 (64.3) n (%)
  TEAE: General disorders and administration site disorders: 8 (57.1) n (%)
  TEAE: Headache: 5 (35.7) n (%)
  TEAE: Hemorrhoids: 0 n (%)
  TEAE: Hypertriglyceridaemia: 1 (7.1) n (%)
  TEAE: Hypoalbuminaemia: 3 (21.4) n (%)
  TEAE: Hypocalcaemia: 3 (21.4) n (%)
  TEAE: Hypokalaemia: 2 (14.3) n (%)
  TEAE: Hypomagnaesemia: 3 (21.4) n (%)
  TEAE: Hyponatraemia: 4 (28.6) n (%)
  TEAE: Infections and Infestations: 8 (57.1) n (%)
  TEAE: Investigations: 10 (71.4) n (%)
  TEAE: Metabolism and nutrition disorders: 11 (78.6) n (%)
  TEAE: Musculoskeletal and connective tissue disorders: 7 (50.0) n (%)
  TEAE: Nausea: 5 (35.7) n (%)
  TEAE: Nervous System Disorders: 7 (50.0) n (%)
  TEAE: Oedema peripheral: 2 (14.3) n (%)
  TEAE: Pain in extremity: 3 (21.4) n (%)
  TEAE: Platelet count decreased: 3 (21.4) n (%)
  TEAE: Pneumonia: 2 (14.3) n (%)
  TEAE: Pruritus: 3 (21.4) n (%)
  TEAE: Pyrexia: 3 (21.4) n (%)
  TEAE: Respiratory, thoracic and mediastinal disorders: 6 (42.9) n (%)
  TEAE: Sepsis: 2 (14.3) n (%)
  TEAE: Skin and subcutaneous tissue disorders: 5 (35.7) n (%)
  TEAE: Stomatitis: 1 (7.1) n (%)
  TEAE: Vomiting: 3 (21.4) n (%)
  related TEAE: Aspartate aminotransferase increased: 0 n (%)
  related TEAE: Blood and lymphatic system disorders: 0 n (%)
  related TEAE: Decreased appetite: 2 (14.3) n (%)
  related TEAE: Differentiation syndrome: 1 (7.1) n (%)
  related TEAE: Gastrointestinal disorders: 2 (14.3) n (%)
  related TEAE: General disorders and administration site conditions: 1 (7.1) n (%)
  related TEAE: Headache: 1 (7.1) n (%)
  related TEAE: Hypertriglyceridaemia: 0 n (%)
  related TEAE: Hyperuricaemia: 1 (7.1) n (%)
  related TEAE: Increased appetite: 1 (7.1) n (%)
  related TEAE: Investigations: 0 n (%)
  related TEAE: Leukocytosis: 0 n (%)
  related TEAE: Metabolism and nutrition disorders: 4 (28.6) n (%)
  related TEAE: Nausea: 2 (14.3) n (%)
  related TEAE: Neoplasms benign, malignant and unspecified (incl cysts and polyps): 1 (7.1) n (%)
  related TEAE: Nervous system disorders: 1 (7.1) n (%)
  related TEAE: Thirst: 1 (7.1) n (%)
  related TEAE: Vomiting: 2 (14.3) n (%)
Arm A N=14, ≥Grade 3
  Patients with Any TEAE: 14 (100.0) n (%)
  TEAE: Alanine aminotransferase increased: 0 n (%)
  TEAE: Anaemia: 4 (28.6) n (%)
  TEAE: Aspartate aminotransferase increased: 1 (7.1) n (%)
  TEAE: Blood and lymphatic system disorders: 8 (57.1) n (%)
  TEAE: Constipation: 0 n (%)
  TEAE: Decreased appetite: 0 n (%)
  TEAE: Disease progression: 1 (7.1) n (%)
  TEAE: Dyspnoea: 1 (7.1) n (%)
  TEAE: Epistaxis: 0 n (%)
  TEAE: Fatigue: 0 n (%)
  TEAE: Gastrointestinal disorders: 1 (7.1) n (%)
  TEAE: General disorders and administration site disorders: 2 (14.3) n (%)
  TEAE: Headache: 0 n (%)
  TEAE: Hemorrhoids: 0 n (%)
  TEAE: Hypertriglyceridaemia: 0 n (%)
  TEAE: Hypoalbuminaemia: 0 n (%)
  TEAE: Hypocalcaemia: 0 n (%)
  TEAE: Hypokalaemia: 0 n (%)
  TEAE: Hypomagnaesemia: 0 n (%)
  TEAE: Hyponatraemia: 0 n (%)
  TEAE: Infections and Infestations: 6 (42.9) n (%)
  TEAE: Investigations: 4 (28.6) n (%)
  TEAE: Metabolism and nutrition disorders: 1 (7.1) n (%)
  TEAE: Musculoskeletal and connective tissue disorders: 0 n (%)
  TEAE: Nausea: 0 n (%)
  TEAE: Nervous System Disorders: 2 (14.3) n (%)
  TEAE: Oedema peripheral: 0 n (%)
  TEAE: Pain in extremity: 0 n (%)
  TEAE: Platelet count decreased: 1 (7.1) n (%)
  TEAE: Pneumonia: 2 (14.3) n (%)
  TEAE: Pruritus: 0 n (%)
  TEAE: Pyrexia: 0 n (%)
  TEAE: Respiratory, thoracic and mediastinal disorders: 2 (14.3) n (%)
  TEAE: Sepsis: 2 (14.3) n (%)
  TEAE: Skin and subcutaneous tissue disorders: 0 n (%)
  TEAE: Stomatitis: 0 n (%)
  TEAE: Vomiting: 0 n (%)
  related TEAE: Aspartate aminotransferase increased: 0 n (%)
  related TEAE: Blood and lymphatic system disorders: 0 n (%)
  related TEAE: Decreased appetite: 0 n (%)
  related TEAE: Differentiation syndrome: 1 (7.1) n (%)
  related TEAE: Gastrointestinal disorders: 0 n (%)
  related TEAE: General disorders and administration site conditions: 0 n (%)
  related TEAE: Headache: 0 n (%)
  related TEAE: Hypertriglyceridaemia: 0 n (%)
  related TEAE: Hyperuricaemia: 0 n (%)
  related TEAE: Increased appetite: 0 n (%)
  related TEAE: Investigations: 0 n (%)
  related TEAE: Leukocytosis: 0 n (%)
  related TEAE: Metabolism and nutrition disorders: 0 n (%)
  related TEAE: Nausea: 0 n (%)
  related TEAE: Neoplasms benign, malignant and unspecified (incl cysts and polyps): 1 (7.1) n (%)
  related TEAE: Nervous system disorders: 0 n (%)
  related TEAE: Thirst: 0 n (%)
  related TEAE: Vomiting: 0 n (%)
Arm B N=10, Any Grade
  Patients with Any TEAE: 10 (100.0) n (%)
  TEAE: Alanine aminotransferase increased: 2 (20.0) n (%)
  TEAE: Anaemia: 1 (10.0) n (%)
  TEAE: Aspartate aminotransferase increased: 2 (20.0) n (%)
  TEAE: Blood and lymphatic system disorders: 3 (30.0) n (%)
  TEAE: Constipation: 1 (10.0) n (%)
  TEAE: Decreased appetite: 0 n (%)
  TEAE: Disease progression: 2 (20.0) n (%)
  TEAE: Dyspnoea: 1 (10.0) n (%)
  TEAE: Epistaxis: 2 (20.0) n (%)
  TEAE: Fatigue: 2 (20.0) n (%)
  TEAE: Gastrointestinal disorders: 6 (60.0) n (%)
  TEAE: General disorders and administration site disorders: 3 (30.0) n (%)
  TEAE: Headache: 1 (20.0) n (%)
  TEAE: Hemorrhoids: 2 (20.0) n (%)
  TEAE: Hypertriglyceridaemia: 2 (20.0) n (%)
  TEAE: Hypoalbuminaemia: 0 n (%)
  TEAE: Hypocalcaemia: 1 (10.0) n (%)
  TEAE: Hypokalaemia: 3 (30.0) n (%)
  TEAE: Hypomagnaesemia: 0 n (%)
  TEAE: Hyponatraemia: 0 n (%)
  TEAE: Infections and Infestations: 6 (60.0) n (%)
  TEAE: Investigations: 3 (30.0) n (%)
  TEAE: Metabolism and nutrition disorders: 5 (50.0) n (%)
  TEAE: Musculoskeletal and connective tissue disorders: 2 (20.0) n (%)
  TEAE: Nausea: 3 (30.0) n (%)
  TEAE: Nervous System Disorders: 2 (20.0) n (%)
  TEAE: Oedema peripheral: 0 n (%)
  TEAE: Pain in extremity: 1 (10.0) n (%)
  TEAE: Platelet count decreased: 0 n (%)
  TEAE: Pneumonia: 2 (20.0) n (%)
  TEAE: Pruritus: 0 n (%)
  TEAE: Pyrexia: 0 n (%)
  TEAE: Respiratory, thoracic and mediastinal disorders: 3 (30.0) n (%)
  TEAE: Sepsis: 2 (20.0) n (%)
  TEAE: Skin and subcutaneous tissue disorders: 1 (10.0) n (%)
  TEAE: Stomatitis: 2 (20.0) n (%)
  TEAE: Vomiting: 1 (10.0) n (%)
  related TEAE: Aspartate aminotransferase increased: 1 (10.0) n (%)
  related TEAE: Blood and lymphatic system disorders: 1 (10.0) n (%)
  related TEAE: Decreased appetite: 0 n (%)
  related TEAE: Differentiation syndrome: 0 n (%)
  related TEAE: Gastrointestinal disorders: 1 (10.0) n (%)
  related TEAE: General disorders and administration site conditions: 0 n (%)
  related TEAE: Headache: 0 n (%)
  related TEAE: Hypertriglyceridaemia: 1 (10.0) n (%)
  related TEAE: Hyperuricaemia: 0 n (%)
  related TEAE: Increased appetite: 0 n (%)
  related TEAE: Investigations: 1 (10.0) n (%)
  related TEAE: Leukocytosis: 1 (10.0) n (%)
  related TEAE: Metabolism and nutrition disorders: 1 (10.0) n (%)
  related TEAE: Nausea: 1 (10.0) n (%)
  related TEAE: Neoplasms benign, malignant and unspecified (incl cysts and polyps): 0 n (%)
  related TEAE: Nervous system disorders: 0 n (%)
  related TEAE: Thirst: 0 n (%)
  related TEAE: Vomiting: 1 (10.0) n (%)
Arm B N=10, ≥Grade 3
  Patients with Any TEAE: 8 (80.0) n (%)
  TEAE: Alanine aminotransferase increased: 0 n (%)
  TEAE: Anaemia: 0 n (%)
  TEAE: Aspartate aminotransferase increased: 1 (10.0) n (%)
  TEAE: Blood and lymphatic system disorders: 3 (30.0) n (%)
  TEAE: Constipation: 0 n (%)
  TEAE: Decreased appetite: 0 n (%)
